Measured values reported in patent publication US8394959B2, “Maleate salts of (E)-N-{4-[3-chloro-4-(2-pyridinylmethoxy)anilino]-3-cyano-7-ethoxy-6-quinolinyl)-4-(dimethylamino)-2-buteramide and crystalline forms thereof” (Wyeth LLC, priority 2007, dated 2013).
≈ marks a conversion by molar mass, not a printed value. Read-outs that look alike come from different tables or passages of the source.

How the values were obtained:
[1] = Salt form screen: physicochemical properties (solubility, pH, hygroscopicity); conditions: for pH: Table 1, pH of the solution
[2] = Physicochemical properties of maleate salt pilot batches; conditions: for Aqueous Solubility: footnote: s the free base
[3] = test system: emectic receptors in the stomach; experiment: Emectic receptor interaction / diarrhea in mammals; assay type: in vivo; conditions: in words
[4] = Solubility comparison of free base and maleate salt; conditions: for pH of solution in 2% Tween 80 in water: solvent 2% Tween 80 in water; for pH of solution in Water: solvent water
[5] = Compound pharmacokinetics (systemic exposure) in rats; assay type: in vivo, rat; design: AUC/Dose: unit not given here; conditions: for AUC(0-t): read-out: AUC0-24
[6] = Solid state stability in closed and open containers at 40° C. and 75% RH; assay type: physicochemical; conditions: for time remained stable: closed and open containers at 40° C. and 75% RH
From the text: Both Form I and Form II remained stable for 6 months under these conditions. […] Samples in the closed containers remained dry. HPLC purity analysis indicated no significant increase in degradation products in both open and closed conditions for up to 6 months.

[7] = 20-25° C., relative humidity 50-60%, 24 hours, XRD
Protocol: FIG. 7 illustrates an XRD scan of crystalline (E)-N-{4-[3-chloro-4-(2-pyridinylmethoxy)anilino]-3-cyano-7-ethoxy-6-quinolinyl}-4-(dimethylamino)-2-butenamide maleate in Form II, before and after exposure to relative humidity of 50-60% at an ambient temperature of 20-25° C. for 24 hours.
FIG. 8 is an XRD scan of crystalline (E)-N-{4-[3-chloro-4-(2-pyridinylmethoxy)anilino]-3-cyano-7-ethoxy-6-quinolinyl}-4-(dimethylamino)-2-butenamide maleate in Form I before (lower scan), and after (upper scan) exposure to relative humidity of 50-60% at room temperature of 20-25° C. for 24 hours.

[8] = Dynamic vapor sorption (DVS) hygroscopicity; assay type: physicochemical; conditions: DVS isotherm, FIG. 2
From the text: The relative stability and hygroscopicity of the two crystalline forms of the maleate salt was studied in detail by dynamic vapor sorption (DVS).

[9] = Water solubility and BCS classification of the free base; assay type: physicochemical
From the text: Pat. […] The compound is classified, based on the Biopharmaceutical Classification System, as a BCS Class IV compound (low water solubility and low permeability). […] The water solubility increases with decreasing pH as the compound becomes ionized. This compound is […] rate limiting. There is a need for a form of this compound with improved physicochemical properties.

physchem = conditions: aqueous with cosolvent or surfactant or cyclodextrin
[10] = Stability of crystalline forms of the reslurry at room temperature for 14 days; assay type: physicochemical; conditions: reslurry in Ethyl acetate
From the text: In one embodiment the re-slurry is allowed to stand for about 14 days.

[11] = pilot batch Run 1, batch size 0.5 g
[12] = pilot batch Run 2, batch size 6.6 g
[13] = pilot batch Run 3, batch size 4 g
[14] = plasma, oral, rat Female, 5 mg/kg, Day 28, mean (SE), N 3
[15] = plasma, oral, rat Male, 5 mg/kg, Day 28, mean (SE), N 3
[16] = plasma, rat Female, 15 mg/kg, Day 28, mean (SE), N 3
[17] = plasma, rat Male, 15 mg/kg, Day 28, mean (SE), N 3
[18] = plasma, oral, rat Male, 100 mg/kg, Day 10, mean (SE), N 3
[19] = plasma, rat Female, 30 mg/kg, Day 10, mean (SE), N 3
[20] = plasma, rat Male, 10 mg/kg, Day 10, mean (SE), N 3
[21] = plasma, rat Male, 30 mg/kg, Day 10, mean (SE), N 3
[22] = Closed Vial at 40° C./75% RH, 1 week in storage
[23] = Closed Vial at 40° C./75% RH, 2 weeks in storage
[24] = Closed Vial at 40° C./75% RH, 4 weeks in storage
[25] = Closed Vial at 40° C./75% RH, 12 weeks in storage
[26] = Closed Vial at 40° C./75% RH, 24 weeks in storage
[27] = Closed Vial at 40° C./75% RH, Initial
[28] = Open Vial at 40° C./75% RH, 1 week in storage
[29] = Open Vial at 40° C./75% RH, 2 weeks in storage
[30] = Open Vial at 40° C./75% RH, 4 weeks in storage
[31] = Open Vial at 40° C./75% RH, 12 weeks in storage
[32] = Open Vial at 40° C./75% RH, 24 weeks in storage
[33] = Open Vial at 40° C./75% RH, Initial

Compound: CCOc1cc2ncc(C#N)c(Nc3ccc(OCc4ccccn4)c(Cl)c3)c2cc1NC(=O)/C=C/CN(C)C.O=C(O)/C=C\C(=O)O [Maleate salt]
- solubility [1]: 0.37 mg/g
- pH ([1]; salt screen): 5.11
- hygroscopicity ([1]; salt screen, in words): less hygroscopic
- Solution pH [2, 11]: 5.11
- Aqueous Solubility [2, 11]: 0.37 mg/g
- Solution pH [2, 12]: 5.10
- Aqueous Solubility [2, 12]: 0.50 mg/g
- Solution pH [2, 13]: 5.15
- Aqueous Solubility [2, 13]: 0.44 mg/g
- emectic receptor interaction / diarrhea [3]: minimizes emectic receptor interactions in mammals
- solubility ([4]; 2% Tween 80 in water, aqueous with cosolvent or surfactant or cyclodextrin): 1.12 mg/mL
- pH of solution in 2% Tween 80 in water [4]: (pH 5.06)
- pH of solution in Water [4]: (pH 5.00)
- solubility ([4]; water, pH 5, water): 0.43 mg/mL
- Cmax [5, 14]: 1.38 µg/mL
- AUC(0-t) [5, 14]: 9.53 µg·h/mL
- AUC(0-t) ([5]; plasma, oral, rat Female, 45 mg/kg, Day 28, mean (SE), N 3): 75.6 µg·h/mL
- Cmax [5, 15]: 1.2 µg/mL
- AUC(0-t) [5, 15]: 8.22 µg·h/mL
- AUC(0-t) ([5]; plasma, oral, rat Male, 45 mg/kg, Day 28, mean (SE), N 3): 65.1 µg·h/mL
- Cmax [5, 16]: 3.56 µg/mL
- AUC(0-t) [5, 16]: 34.2 µg·h/mL
- Cmax ([5]; plasma, rat Female, 45 mg/kg, Day 28, mean (SE), N 3): 4.56 µg/mL
- Cmax [5, 17]: 3.42 µg/mL
- AUC(0-t) [5, 17]: 30.2 µg·h/mL
- Cmax ([5]; plasma, rat Male, 45 mg/kg, Day 28, mean (SE), N 3): 4.62 µg/mL
- AUC/Dose ([5]; rat Female, 5 mg/kg, Day 28, mean (SE), N 3): 1907 (169)
- AUC/Dose ([5]; rat Female, 15 mg/kg, Day 28, mean (SE), N 3): 2278 (177)
- AUC/Dose ([5]; rat Female, 45 mg/kg, Day 28, mean (SE), N 3): 1681 (141)
- AUC/Dose ([5]; rat Male, 5 mg/kg, Day 28, mean (SE), N 3): 1645 (126)
- AUC/Dose ([5]; rat Male, 15 mg/kg, Day 28, mean (SE), N 3): 2014 (178)
- AUC/Dose ([5]; rat Male, 45 mg/kg, Day 28, mean (SE), N 3): 1446 (106)
- increase in AUC as compared to the free base ([5]; rat, dose range of 5 to 45 mg/kg): two-fold

Compound: Tosylate
- pH ([1]; salt screen): 4.72
- solubility ([1]; salt screen, Table 1, water): 6.89 mg/g

Compound: CCOc1cc2ncc(C#N)c(Nc3ccc(OCc4ccccn4)c(Cl)c3)c2cc1NC(=O)/C=C/CN(C)C.O.O=C(O)/C=C\C(=O)O [Form II]
- time remained stable [6]: 6 months
- form stability on exposure to ambient humidity [7]: relatively stable
- relative humidity at which water is lost ([8]; especially at 10% RH and below): ≤ 20 % RH

Compound: Fumarate
- pH ([1]; salt screen): 3.53

Compound: CCOc1cc2ncc(C#N)c(Nc3ccc(OCc4ccccn4)c(Cl)c3)c2cc1NC(=O)/C=C/CN(C)C [free base]
- emectic receptor interaction / diarrhea [3]: giving rise to diarrhea in mammals
- pH of solution in 2% Tween 80 in water [4]: (pH 6.4)
- pH of solution in Water [4]: (pH 8.2)
- Biopharmaceutical Classification System class ([9]; low water solubility and low permeability): BCS Class IV
- solubility ([9]; water, at about pH 7): ~0.001 mg/mL (≈ 1.8 µM)
- Cmax [5, 18]: 3.82 µg/mL
- AUC(0-t) [5, 18]: 58.3 µg·h/mL
- Cmax [5, 19]: 2.44 µg/mL
- AUC(0-t) [5, 19]: 25 µg·h/mL
- Cmax [5, 20]: 0.814 µg/mL
- AUC(0-t) [5, 20]: 6.79 µg·h/mL
- Cmax ([5]; plasma, rat Male, 20 mg/kg, Day 1, mean (SE), N 4): 1.01 µg/mL
- AUC(0-inf) ([5]; plasma, rat Male, 20 mg/kg, Day 1, mean (SE), N 4, footnote a: AUC0-∞): 8.51 µg·h/mL
- Cmax [5, 21]: 1.65 µg/mL
- AUC(0-t) [5, 21]: 20.4 µg·h/mL
- systemic availability ([5]; rat): 20%
- AUC/Dose ([5]; rat Female, 30 mg/kg, Day 10, mean (SE), N 3): 832 (145)
- AUC/Dose ([5]; rat Male, 10 mg/kg, Day 10, mean (SE), N 3): 678 (64)
- AUC/Dose ([5]; rat Male, 20 mg/kg, Day 1, mean (SE), N 4): 426 (81)
- AUC/Dose ([5]; rat Male, 30 mg/kg, Day 10, mean (SE), N 3): 680 (78)
- AUC/Dose ([5]; rat Male, 100 mg/kg, Day 10, mean (SE), N 3): 583 (125)
- solubility (physchem): 0.05 mg/mL (≈ 89.8 µM)

Compound: CCOc1cc2ncc(C#N)c(Nc3ccc(OCc4ccccn4)c(Cl)c3)c2cc1NC(=O)/C=C/CN(C)C.O=C(O)/C=C\C(=O)O [Form I]
- Moisture [6, 22]: 0.39%
- Potency (dry basis) [6, 22]: 100.46%
- Potency as is [6, 22]: 100.07%
- Total impurities [6, 22]: 0.57%
- Moisture [6, 23]: 0.34%
- Potency (dry basis) [6, 23]: 100.38%
- Potency as is [6, 23]: 100.03%
- Total impurities [6, 23]: 0.64%
- Moisture [6, 24]: 0.22%
- Potency (dry basis) [6, 24]: 97.09%
- Potency as is [6, 24]: 96.87%
- Total impurities [6, 24]: 0.61%
- Moisture [6, 25]: 0.46%
- Potency (dry basis) [6, 25]: 100.67%
- Potency as is [6, 25]: 100.21%
- Total impurities [6, 25]: 0.66%
- Moisture [6, 26]: 0.16%
- Potency (dry basis) [6, 26]: 99.12%
- Potency as is [6, 26]: 98.96%
- Total impurities [6, 26]: 0.68%
- Moisture [6, 27]: 0.35%
- Potency (dry basis) [6, 27]: 100.85%
- Potency as is [6, 27]: 100.50%
- Total impurities [6, 27]: 0.57%
- Moisture [6, 28]: 2.82%
- Potency (dry basis) [6, 28]: 102.01%
- Potency as is [6, 28]: 99.13%
- Total impurities [6, 28]: 0.55%
- Moisture [6, 29]: 2.86%
- Potency (dry basis) [6, 29]: 100.37%
- Potency as is [6, 29]: 97.50%
- Total impurities [6, 29]: 0.65%
- Moisture [6, 30]: 2.74%
- Potency (dry basis) [6, 30]: 97.96%
- Potency as is [6, 30]: 95.27%
- Total impurities [6, 30]: 0.58%
- Moisture [6, 31]: 2.98%
- Potency (dry basis) [6, 31]: 101.13%
- Potency as is [6, 31]: 98.12%
- Total impurities [6, 31]: 0.65%
- Moisture [6, 32]: 2.79%
- Potency (dry basis) [6, 32]: 100.01%
- Potency as is [6, 32]: 97.22%
- Total impurities [6, 32]: 0.69%
- Moisture [6, 33]: 0.35%
- Potency (dry basis) [6, 33]: 100.85%
- Potency as is [6, 33]: 100.50%
- Total impurities [6, 33]: 0.57%
- time remained stable [6]: 6 months
- water uptake in open containers ([6]; open containers at 40° C. and 75% RH): rapidly absorbed one mole of water to form the monohydrate form
- Final Form, wet cake [10]: I + some II
- relative humidity at which moisture is gained ([8]; especially at 60% RH and above): above 40 % relative humidity (RH)
